This note sets out measurements from ChEMBL document CHEMBL3864183, “Development of ML390: A Human DHODH Inhibitor That Induces Differentiation in Acute Myeloid Leukemia” (ACS Med Chem Lett, 2016).

One may read the EC50 as the concentration giving half of the maximal effect. The term IC50 denotes the concentration needed to halve the response being measured. The solubility is the concentration that dissolves in the medium under given conditions. Higher therefore signals much dissolved substance.

One data set deals with U-937. As to the kind of experiment: Induction of human U937 cell differentiation after 4 days by flow cytometry. The note with it: U-937, 96 h. It is filed as functional, cell-based. A general note: Flow cytometry measures light scatter and fluorescence of single cells or particles in a stream.
Data set [1] is described as follows: Induction of bone marrow cell differentiation isolated from ER-HOXA9 fusion protein expressed mouse harboring GFP-lysozyme assessed as upregulation of CD11b/MAC1 after 4 days by flow cytometry. It counts as functional, cell-based. The note with it: 96 h.
The subject of the next data set is THP-1. As to the kind of experiment: Induction of human THP1 cell differentiation after 4 days by flow cytometry. It is filed as functional, cell-based. The note with it: THP-1, 96 h.
For data set [2], the target named is Dihydroorotate dehydrogenase (quinone), mitochondrial (Homo sapiens, UniProt Q02127). As to the kind of experiment: Inhibition of human recombinant DHODH.
Chain of Dihydroorotate dehydrogenase (quinone), mitochondrial (Q02127 whole entry): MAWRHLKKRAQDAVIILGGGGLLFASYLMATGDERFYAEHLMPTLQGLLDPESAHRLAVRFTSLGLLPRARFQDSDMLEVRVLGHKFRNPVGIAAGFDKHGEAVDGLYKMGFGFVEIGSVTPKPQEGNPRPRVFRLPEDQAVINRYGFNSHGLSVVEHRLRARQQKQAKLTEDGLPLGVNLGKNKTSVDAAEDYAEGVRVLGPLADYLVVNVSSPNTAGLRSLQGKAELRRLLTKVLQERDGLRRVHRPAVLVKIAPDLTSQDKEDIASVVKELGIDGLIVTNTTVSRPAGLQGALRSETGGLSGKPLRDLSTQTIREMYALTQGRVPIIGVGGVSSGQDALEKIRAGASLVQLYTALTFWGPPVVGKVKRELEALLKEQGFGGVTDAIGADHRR
A short description of data set [3]: Protein binding in mouse plasma. The note with it: read-out: PPB. It counts as ADME, cell-free.
Data set [4] is described as follows: Stability of the compound in PBS for 24 hrs. It is filed as physicochemical. The note with it: buffer.
Data set [5] can be described thus: Stability of the compound in human plasma for 5 hrs. It is filed as ADME, cell-free.
Data set [6] is described as follows: Solubility of the compound in PBS at pH 7.4. It counts as physicochemical.
Data set [7] in a line: Protein binding in human plasma. It counts as ADME, cell-free. The note with it: read-out: PPB.

Structures are written as SMILES. Values after ≈ are worked out from the molar mass of the structure shown. Where only a bound is given, the exact number is not on record here.

As for `O=C(O)c1cccnc1Nc1ccc(Cl)cc1`, the EC50 with U-937 amounted to 6.1 µM; in data set [1], 3 µM; in the data set with THP-1 it was 10.7 µM. Further, the half-inhibitory concentration (IC50) in data set [2] is 0.4 µM.
Consider `COc1ccc(Nc2ccccc2C(=O)O)cc1`, for which the EC50 (in the data set on U-937; in [1]; in the data set with THP-1) was more than 20 µM in each case. Moreover, the IC50 in data set [2] is 10 µM.
For `O=C(O)c1ccccc1Nc1ccc(Cl)cc1`, the values for the EC50 (with U-937; in data set [1]; in the data set on THP-1) were 17 µM, 10 µM and more than 20 µM, respectively. The IC50 in data set [2] was 0.42 µM.
Regarding `N#Cc1ccc(C(=O)NCCC(=O)N[C@@H]2CCCc3ccccc32)cc1`, in [2], the half-inhibitory concentration (IC50) came out at 8.9 µM.
In the case of `O=C(CCNC(=O)c1ccc(C(F)(F)F)cc1)N[C@@H]1CCCc2ccccc21`, the EC50 turned out to be 2.7 µM in the data set on U-937, 3.6 µM in [1] and 2.5 µM with THP-1. Besides, the IC50 in [2] was 0.91 µM.
Regarding `O=C(CCNC(=O)c1ccc(OC(F)(F)F)cc1)N[C@@H]1CCCc2ccccc21`, the 50% effective concentration (EC50) in the data set with U-937 is 8.8 µM; in data set [1], 1.8 µM; in the data set with THP-1 it was 6.5 µM. Also, the fraction unbound in data set [3] and in data set [7] was 0.01 throughout. The Stability result in [4] and in data set [5] was “Stable” in each case. Besides, in data set [2], the IC50 came to 0.56 µM. In [6], the solubility stood at 2.5 µM (≈ 1.02 µg/mL).
Regarding `O=C(CNC(=O)c1ccc(Cl)c(Cl)c1)N[C@@H]1CCCc2ccccc21`, the IC50 in data set [2] was more than 20 µM.
As to `Cc1ccc(C(=O)NCCC(=O)N[C@@H]2CCCc3ccccc32)cc1`, the 50% effective concentration (EC50) stood at 4.2 µM in the data set on U-937, 8.1 µM in data set [1] and 2.7 µM in the data set on THP-1. The IC50 in data set [2] stood at 1.9 µM.
`O=C(CCNC(=O)c1ccc(F)cc1)N[C@@H]1CCCc2ccccc21`: the 50% inhibitory concentration (IC50) in data set [2] worked out at 9.5 µM.
On to `O=C(CCNC(=O)c1cccc(Cl)c1)N[C@@H]1CCCc2ccccc21`, for which the EC50 with U-937 was 8.8 µM; in [1], 7.9 µM; in the data set with THP-1, 6.5 µM. The half-maximal inhibitory concentration (IC50) in data set [2] was 7.4 µM.
Consider `O=C(CCNC(=O)c1ccc(Cl)cc1)N[C@@H]1CCCc2ccccc21`, for which the EC50 in the data set on U-937 was 5.6 µM; in data set [1] it was 4.5 µM; in the data set on THP-1, 3.2 µM. In [2], the IC50 worked out at 1.3 µM.
With `O=C(CCCNC(=O)c1ccc(Cl)c(Cl)c1)N[C@@H]1CCCc2ccccc21`, the half-maximal inhibitory concentration (IC50) in [2] is more than 20 µM.
Take `COc1ccc(C(=O)NCCC(=O)N[C@@H]2CCCc3ccccc32)cc1`: the EC50 in the data set with U-937 turned out to be 12 µM; in data set [1], 5 µM; with THP-1 it was 5.1 µM. Further, in data set [2], the IC50 turned out to be 3.6 µM.
Regarding `O=C(CCNC(=O)c1ccc2c(c1)OC(F)(F)O2)N[C@@H]1CCCc2ccccc21`, the values for the EC50 (in the data set on U-937; in data set [1]; in the data set with THP-1) were 4.4 µM, 4.7 µM and 4.3 µM, respectively. For the same molecule, the IC50 in [2] is 2.7 µM.
With `O=C(CCNC(=O)c1ccc(Cl)c(Cl)c1)N[C@@H]1CCCc2ccccc21`, the half-maximal effective concentration (EC50) in the data set with U-937 was found to be 2.4 µM; in data set [1], 3.2 µM; with THP-1, 2.5 µM. The concentration for half-maximal inhibition (IC50) in data set [2] came to 1.5 µM.
Regarding `O=C(CCCNC(=O)c1ccc(Cl)cc1)N[C@@H]1CCCc2ccccc21`, the IC50 in data set [2] is more than 20 µM.
On to `O=C(CCNC(=O)c1ccccc1)N[C@@H]1CCCc2ccccc21`, for which the IC50 in [2] came to 12.4 µM.
As to `O=C(CNC(=O)c1ccc(C(F)(F)F)cc1)N[C@@H]1CCCc2ccccc21`, the half-inhibitory concentration (IC50) in data set [2] was more than 20 µM.
For the molecule `O=C(O)c1cccnc1Nc1ccc(OC(F)(F)F)cc1`, the EC50 was 5.6 µM in the data set with U-937, 3.7 µM in data set [1] and 7.7 µM with THP-1. In addition, the IC50 in data set [2] was found to be 0.5 µM.
The like results for `O=C(O)c1cccnc1Nc1ccc(F)cc1` were, in that order, more than 20 µM, more than 20 µM, more than 20 µM and 2.8 µM.
Take `O=C(O)c1cccnc1Nc1ccccc1`: the 50% effective concentration (EC50) (in the data set with U-937; in [1]; with THP-1) was more than 20 µM throughout. The half-maximal inhibitory concentration (IC50) in data set [2] turned out to be 17.4 µM.
Regarding `O=C(CCCNC(=O)c1ccc(OC(F)(F)F)cc1)N[C@@H]1CCCc2ccccc21`, the IC50 in data set [2] was more than 20 µM.
As for `O=C(CNC(=O)c1ccc(Cl)cc1)N[C@@H]1CCCc2ccccc21`, in data set [2], the 50% inhibitory concentration (IC50) is more than 20 µM.
In the case of `O=C(O)c1ccc(Cl)cc1Nc1ccccc1`, the EC50 (in the data set with U-937; in data set [1]; in the data set on THP-1) was more than 20 µM in each case. The IC50 in [2] is more than 20 µM.
`O=C(CNC(=O)c1ccc(OC(F)(F)F)cc1)N[C@@H]1CCCc2ccccc21`: in data set [2], the IC50 is more than 20 µM.
On the same count and under the same terms, the value for `O=C(CCCNC(=O)c1ccc(C(F)(F)F)cc1)N[C@@H]1CCCc2ccccc21` was more than 20 µM.
For the molecule `Cc1c(-c2ccc(-c3ccccc3F)cc2)nc2ccc(F)cc2c1C(=O)O` [BREQUINAR], the EC50 came to 0.044 µM with U-937, 0.51 µM in [1] and 0.094 µM in the data set on THP-1.
Consider `Cc1c(Cl)cccc1Nc1ncccc1C(=O)O` [CLONIXIN], for which the EC50 (in the data set on U-937; in data set [1]; with THP-1) was more than 20 µM throughout. For the same molecule, the 50% inhibitory concentration (IC50) in data set [2] stood at 13 µM.
For the molecule `Cc1c(Nc2ncccc2C(=O)O)cccc1C(F)(F)F` [FLUNIXIN], the values for the 50% effective concentration (EC50) (in the data set with U-937; in data set [1]; with THP-1) were more than 20 µM, 16 µM and more than 20 µM, respectively. The concentration for half-maximal inhibition (IC50) in [2] was determined as 8 µM.
Turning to `O=C(O)c1cccnc1Nc1cccc(C(F)(F)F)c1` [NIFLUMIC ACID], the half-maximal effective concentration (EC50) (in the data set on U-937; in data set [1]; with THP-1) was more than 20 µM throughout. For the same molecule, the IC50 in [2] worked out at 17 µM.
